Assay results reported in patent publication US9296725B2, “Heterocyclyl pyrimidine analogues as TYK2 inhibitors” (Cellzome Limited, priority 2012, dated 2016).
Where two headings read alike, the source gives them in different places.

Columns and labels:
TYK2 = biological target: T1, TYK2 (Homo sapiens, UniProt P29597); test: Kinobeads assay, TYK2 (competition binding in mixed Molt4/Ramos cell lysate, dot blot detection)
T1 construct: endogenous in cells; host or cells: Molt4 (ATCC CRL-1582) and Ramos (ATCC CRL-1596), mixed lysate 1:2
T1 sequence (P29597 whole entry): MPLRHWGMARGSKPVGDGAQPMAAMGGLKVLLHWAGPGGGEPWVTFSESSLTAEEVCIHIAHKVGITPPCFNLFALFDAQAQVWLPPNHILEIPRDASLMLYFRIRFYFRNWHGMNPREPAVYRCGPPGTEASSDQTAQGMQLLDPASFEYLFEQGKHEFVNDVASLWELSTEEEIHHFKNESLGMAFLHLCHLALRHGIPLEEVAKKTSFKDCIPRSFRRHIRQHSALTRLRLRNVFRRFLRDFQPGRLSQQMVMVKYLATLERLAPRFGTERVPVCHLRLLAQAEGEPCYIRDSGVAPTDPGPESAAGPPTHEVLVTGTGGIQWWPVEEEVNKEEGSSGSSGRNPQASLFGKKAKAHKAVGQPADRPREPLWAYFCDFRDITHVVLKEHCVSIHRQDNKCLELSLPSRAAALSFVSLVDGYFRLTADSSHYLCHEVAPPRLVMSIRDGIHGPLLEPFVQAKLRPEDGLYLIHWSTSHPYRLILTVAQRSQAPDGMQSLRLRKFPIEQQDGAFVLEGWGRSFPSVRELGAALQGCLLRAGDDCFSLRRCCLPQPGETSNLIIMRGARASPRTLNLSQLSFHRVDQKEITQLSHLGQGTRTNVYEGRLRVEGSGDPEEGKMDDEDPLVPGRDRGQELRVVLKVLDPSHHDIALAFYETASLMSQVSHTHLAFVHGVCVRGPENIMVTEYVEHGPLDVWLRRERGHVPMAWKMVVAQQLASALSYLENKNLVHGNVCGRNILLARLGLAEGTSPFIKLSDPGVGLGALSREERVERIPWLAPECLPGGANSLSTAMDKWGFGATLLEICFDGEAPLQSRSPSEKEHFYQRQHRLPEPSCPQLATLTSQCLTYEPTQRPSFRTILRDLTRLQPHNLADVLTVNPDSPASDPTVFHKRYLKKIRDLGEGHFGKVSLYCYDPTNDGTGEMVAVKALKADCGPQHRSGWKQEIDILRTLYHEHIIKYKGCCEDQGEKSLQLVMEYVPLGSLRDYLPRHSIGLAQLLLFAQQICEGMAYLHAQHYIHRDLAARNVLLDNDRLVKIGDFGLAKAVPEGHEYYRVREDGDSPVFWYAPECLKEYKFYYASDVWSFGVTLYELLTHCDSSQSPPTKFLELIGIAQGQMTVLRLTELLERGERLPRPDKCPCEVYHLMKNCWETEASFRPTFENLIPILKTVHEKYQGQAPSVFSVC
Method: (§1) The compounds of the present invention as described in the previous examples were tested in a Kinobeads™ assay as described for ZAP-70 (WO-A 2007/137867). Briefly, test compounds (at various concentrations) and the affinity matrix with the immobilized aminopyrido-pyrimidine ligand 24 were added to cell lysate aliquots and allowed to bind to the proteins in 10 the lysate sample. After the incubation time the beads with captured proteins were separated from the lysate. Bound proteins were then eluted and the presence of TYK2 and JAK2 was detected and quantified using specific antibodies in a dot blot procedure and the Odyssey infrared detection system. Dose response curves for individual kinases were generated and IC50 values calculated. Kinobeads™ assays have been previously described (WO-A 2007/137867; WO-A 2006/134056).
(§2) The affinity matrix was washed two times with 15 mL of 1×DP buffer containing 0.2% NP40 (IGEPAL® CA-630, Sigma, #13021) and then resuspended in 1×DP buffer containing 0.2% NP40 (3% beads slurry). 5×DP buffer: 250 mM Tris-HCl pH 7.4, 25% Glycerol, 7.5 mM MgCl2, 750 mM NaCl, 5 mM Na3VO4; filter the 5×DP buffer through a 0.22 μm filter and store in aliquots at −80° C. The 5×DP buffer is diluted with H2O to 1×DP buffer containing 1 mM DTT and 25 mM NaF.
(§3) Stock solutions of test compounds were prepared in DMSO. In a 96 well plate 30 μL solution of diluted test compounds at 5 mM in DMSO were prepared. Starting with this solution a 1:3 dilution series (9 steps) was prepared. For control experiments (no test compound) a buffer containing 2% DMSO was used.
(§4) Molt4 cells (ATCC catalogue number CRL-1582) and Ramos cells (ATCC catalogue number CRL-1596) were grown in 1 L Spinner flasks (Integra Biosciences, #182101) in suspension in RPMI 1640 medium (Invitrogen, #21875-034) supplemented with 10% Fetal Bovine Serum (Invitrogen) at a density between 0.15×10^6 and 1.2×10^6 cells/mL. Cells were harvested by centrifugation, washed once with 1×PBS buffer (Invitrogen, #14190-094) and cell pellets were frozen in liquid nitrogen and subsequently stored at −80° C. Cells were homogenized in a Potter S homogenizer in lysis buffer: 50 mM Tris-HCl, 0.8% NP40, 5% glycerol, 150 mM NaCl, 1.5 mM MgCl2, 25 mM NaF, 1 mM sodium vanadate, 1 mM DTT, pH 7.5. One complete EDTA-free tablet (protease inhibitor cocktail, Roche Diagnostics, 1873580) per 25 mL buffer was added. The material was dounced 10 times using a mechanized POTTER S, transferred to 50 mL falcon tubes, incubated for 30 minutes on ice and spun down for 10 minutes at 20,000 g at 4° C. (10,000 rpm in Sorvall SLA600, precooled). The supernatant was transferred to an ultracentrifuge (UZ)-polycarbonate tube (Beckmann, 355654) and spun for 1 hour at 100.000 g at 4° C. (33.500 rpm in Ti50.2, precooled). The supernatant was transferred again to a fresh 50 mL falcon tube, the protein concentration was determined by a Bradford assay (BioRad) and samples containing 50 mg of protein per aliquot were prepared. The samples were immediately used for experiments or frozen in liquid nitrogen and stored frozen at −80° C.
(§5) Cell lysate (approximately 50 mg protein per plate) was thawed in a water bath at room temperature and then stored on ice. To the thawed cell lysate 1×DP 0.8% NP40 buffer containing protease inhibitors (1 tablet for 25 mL buffer; EDTA-free protease inhibitor cocktail; Roche Diagnostics 1873580) was added in order to reach a final protein concentration of 10 mg/mL total protein. The diluted cell lysate was stored on ice. Mixed Molt4/Ramos lysate was prepared by combining one volume of Molt4 lysate and two volumes of Ramos lysate (ratio 1:2).
(§6) To a 96 well filter plate (Multiscreen HTS, BV Filter Plates, Millipore #MSBVN1250) were added per well: 100 μL affinity matrix (3% beads slurry), 3 μL of compound solution, and 50 μL of diluted lysate. Plates were sealed and incubated for 3 hours in a cold room on a plate shaker (Heidolph tiramax 1000) at 750 rpm. […]

JAK2 = biological target: T2, JAK2 (Homo sapiens, UniProt O60674); test: Kinobeads assay, JAK2 (competition binding in mixed Molt4/Ramos cell lysate, dot blot detection); conditions: read-out: JAK2 Band (Kinobeads assay potency, IC50)
T2 construct: endogenous in cells; host or cells: Molt4 (ATCC CRL-1582) and Ramos (ATCC CRL-1596), mixed lysate 1:2
T2 sequence (O60674 whole entry): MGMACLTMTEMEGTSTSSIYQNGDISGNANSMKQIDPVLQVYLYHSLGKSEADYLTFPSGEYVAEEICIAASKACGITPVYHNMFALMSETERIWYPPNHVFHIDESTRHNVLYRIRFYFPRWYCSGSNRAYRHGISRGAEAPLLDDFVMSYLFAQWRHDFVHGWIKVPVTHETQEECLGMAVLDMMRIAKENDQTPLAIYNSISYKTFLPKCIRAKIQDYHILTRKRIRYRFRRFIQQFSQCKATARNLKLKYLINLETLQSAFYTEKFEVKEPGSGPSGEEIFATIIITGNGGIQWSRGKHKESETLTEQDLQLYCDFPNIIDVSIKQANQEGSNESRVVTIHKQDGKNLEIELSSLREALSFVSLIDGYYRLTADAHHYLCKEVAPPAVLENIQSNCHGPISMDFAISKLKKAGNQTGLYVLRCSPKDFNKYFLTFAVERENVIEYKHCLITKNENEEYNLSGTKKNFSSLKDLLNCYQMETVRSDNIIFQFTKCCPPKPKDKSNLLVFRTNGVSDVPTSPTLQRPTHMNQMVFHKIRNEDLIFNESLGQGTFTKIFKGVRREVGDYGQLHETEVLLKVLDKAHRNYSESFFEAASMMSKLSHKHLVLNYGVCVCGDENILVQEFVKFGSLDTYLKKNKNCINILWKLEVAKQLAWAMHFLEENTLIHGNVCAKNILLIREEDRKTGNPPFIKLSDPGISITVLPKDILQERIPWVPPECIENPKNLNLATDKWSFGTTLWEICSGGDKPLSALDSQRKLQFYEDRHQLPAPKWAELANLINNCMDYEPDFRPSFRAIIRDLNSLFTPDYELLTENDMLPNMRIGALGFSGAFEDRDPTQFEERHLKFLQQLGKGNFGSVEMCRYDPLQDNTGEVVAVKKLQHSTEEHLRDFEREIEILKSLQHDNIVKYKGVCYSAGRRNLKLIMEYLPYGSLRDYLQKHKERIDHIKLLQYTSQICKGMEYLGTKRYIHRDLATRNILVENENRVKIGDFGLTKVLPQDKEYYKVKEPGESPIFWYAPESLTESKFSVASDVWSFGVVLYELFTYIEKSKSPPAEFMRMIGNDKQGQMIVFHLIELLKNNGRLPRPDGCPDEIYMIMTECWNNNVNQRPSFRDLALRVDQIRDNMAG
Method: as §1, §2, §3, §4, §5, §6

[1] = Kinobeads assay, Molt4/Ramos lysate, read-out: TYK2 Band (Kinobeads assay potency, IC50)

Row | Compound | IC50 (TYK2; [1]) | IC50 (TYK2; read-out: TYK2 IC50) | IC50 (JAK2)
1 | COc1ccc(F)c(CNc2ccnc(Nc3cnn(CC(=O)NC4CC4)c3)n2)c1F [Example I-125] | ≤ 10 nM | < 100 nM | 1000 to 10000 nM
2 | NS(=O)(=O)c1ccc(CNc2nc(Nc3cnn(CC(=O)NC4CC4)c3)ncc2Cl)cc1 [Example I-10] | 10 to 100 nM |  | > 10000 nM
3 | C[C@@H]1COCCN1C(=O)Cn1cc(Nc2ncc(F)c(NCc3c(F)cc(F)cc3F)n2)cn1 [Example I-40] | 10 to 100 nM |  | 1000 to 10000 nM
4 | OCCn1cc(Nc2ncc(Cl)c(NCc3ccccc3CO)n2)cn1 [Example I-357] | 100 to 1000 nM |  | 1000 to 10000 nM
5 | CS(=O)(=O)c1ccc(F)cc1CNc1nc(Nc2cn[nH]c2)ncc1F [Example I-486] | 100 to 1000 nM |  | 100 to 1000 nM
6 | Fc1cccc(CNc2nc(Nc3cn[nH]c3)ncc2Cl)c1C(F)(F)F [Example I-136] | 10 to 100 nM |  | 100 to 1000 nM
7 | OCCn1cc(Nc2ncc(Cl)c(NCc3cc(Br)cc(F)c3F)n2)cn1 [Example I-264] | 100 to 1000 nM |  | 100 to 1000 nM
8 | O=C(Cn1cc(Nc2ncc(F)c(NCc3c(Cl)cccc3Cl)n2)cn1)N1CCOCC1 [Example I-49] | 10 to 100 nM |  | 1000 to 10000 nM
9 | CC1(C)CN(C(=O)Cn2cc(Nc3nccc(NCc4c(F)cc(F)cc4F)n3)cn2)C1 [Example I-458] | 10 to 100 nM |  | > 10000 nM
10 | CC(C)NC(=O)Cn1cc(Nc2nccc(NCc3c(F)cncc3F)n2)cn1 [Example I-145] | ≤ 10 nM |  | > 10000 nM
11 | CN(C)C(=O)Cn1cc(Nc2ncc(Cl)c(NCc3cccc(C(N)=O)c3)n2)cn1 [Example I-390] | 100 to 1000 nM |  | 1000 to 10000 nM
12 | OCCn1cc(Nc2ncc(Cl)c(NCc3c(F)ccc(F)c3F)n2)cn1 [Example I-373] | ≤ 10 nM |  | 10 to 100 nM
13 | O=C(Cn1cc(Nc2ncc(Cl)c(NCc3cccc(F)c3F)n2)cn1)N1CCOCC1 [Example I-178] | 10 to 100 nM |  | 100 to 1000 nM
14 | CC(C)(C)OC(=O)N1CCN(C(=O)Cn2cc(Nc3ncc(Cl)c(NCc4ccccc4)n3)cn2)CC1 [Example I-207] | 100 to 1000 nM |  | > 10000 nM
15 | O=C(O)Cn1cc(Nc2ncc(F)c(NCc3cccc(OC(F)F)c3)n2)cn1 [Example I-425] | 10 to 100 nM |  | > 10000 nM
16 | CS(=O)(=O)c1cccc(CNc2nc(Nc3cnn(CC(N)=O)c3)ncc2Cl)c1 [Example I-439] | 100 to 1000 nM |  | 100 to 1000 nM
17 | Cc1cnc(Nc2cnn(CC(=O)N(C)C)c2)nc1NCc1c(F)cc(F)cc1F [Example I-19] | 10 to 100 nM |  | 100 to 1000 nM
18 | C[C@@H](CO)NC(=O)Cn1cc(Nc2nccc(NCc3c(F)cccc3F)n2)cn1 [Example I-151] | 10 to 100 nM |  | 1000 to 10000 nM
19 | COc1c(F)cc(F)cc1CNc1nc(Nc2cnn(C)c2)ncc1Cl [Example I-276] | 100 to 1000 nM |  | 10 to 100 nM
20 | O=C(O)Cn1cc(Nc2ncc(Cl)c(NCc3c(F)cccc3F)n2)cn1 [Example I-165] | 10 to 100 nM |  | 1000 to 10000 nM
21 | CC(O)Cn1cc(Nc2ncc(Cl)c(NCc3cccc(F)c3)n2)cn1 (centres unmarked) [Example I-214] | 100 to 1000 nM |  | 1000 to 10000 nM
22 | CS(=O)(=O)c1ccccc1CNc1nc(Nc2cnn(CCO)c2)ncc1Cl [Example I-266] | 100 to 1000 nM |  | 1000 to 10000 nM
23 | CC(C)NC(=O)Cn1cc(Nc2ncc(F)c(NCc3cccc(OC(F)F)c3)n2)cn1 [Example I-45] | 10 to 100 nM |  | > 10000 nM
